According to PMC6139898, “Engineering xylose metabolism in thraustochytrid T18” (Biotechnology for Biofuels, 2018):

Tests used:
[1] = molecular target: T1, T18 xylose isomerase (XI) (Thraustochytrium sp. ONC-T18, UniProt A0A385ZBK6); experiment: HPLC-RI substrate conversion, overnight; type: biochemical; conditions: 50 °C, 50 mM HEPES pH 7.4, 10 mM MgCl2, 5 mM MgATP; partly pure fraction
T1 construct: gene xylA
T1 sequence (A0A385ZBK6 1-439): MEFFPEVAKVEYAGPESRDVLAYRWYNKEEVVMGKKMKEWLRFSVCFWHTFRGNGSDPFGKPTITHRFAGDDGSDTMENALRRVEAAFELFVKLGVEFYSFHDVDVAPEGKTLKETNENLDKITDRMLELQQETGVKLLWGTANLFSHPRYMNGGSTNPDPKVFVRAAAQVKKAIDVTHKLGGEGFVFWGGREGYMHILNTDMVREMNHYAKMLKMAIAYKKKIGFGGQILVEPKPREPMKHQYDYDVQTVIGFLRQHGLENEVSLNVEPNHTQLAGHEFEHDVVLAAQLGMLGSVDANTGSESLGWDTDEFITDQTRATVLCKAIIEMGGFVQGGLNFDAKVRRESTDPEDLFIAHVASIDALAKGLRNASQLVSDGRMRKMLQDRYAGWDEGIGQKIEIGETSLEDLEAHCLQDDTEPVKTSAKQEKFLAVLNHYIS

[2] = molecular target: T2, XylA (Escherichia coli, UniProt P00944); experiment: HPLC-RI substrate conversion, overnight; type: biochemical; conditions: 30 °C, 50 mM HEPES pH 7.4, 10 mM MgCl2, 5 mM MgATP
T2 construct: full length, N-terminal His tag, expressed in E. coli BL21(DE3)pLysS
T2 sequence (P00944 1-440): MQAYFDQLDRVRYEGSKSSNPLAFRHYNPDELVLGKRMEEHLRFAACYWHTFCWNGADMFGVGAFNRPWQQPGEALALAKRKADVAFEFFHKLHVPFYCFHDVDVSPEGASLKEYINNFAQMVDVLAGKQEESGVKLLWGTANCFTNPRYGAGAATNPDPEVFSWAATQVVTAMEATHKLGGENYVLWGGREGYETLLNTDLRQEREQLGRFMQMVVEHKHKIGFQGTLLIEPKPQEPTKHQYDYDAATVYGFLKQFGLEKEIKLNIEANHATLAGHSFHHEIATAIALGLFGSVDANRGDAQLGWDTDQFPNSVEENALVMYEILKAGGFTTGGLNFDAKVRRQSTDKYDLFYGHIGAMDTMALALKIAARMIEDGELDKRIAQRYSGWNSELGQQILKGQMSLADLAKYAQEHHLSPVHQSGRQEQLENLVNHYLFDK

OC1OC[C@@H](O)[C@H](O)[C@H]1O (stereo partly shown) [xylose]
HPLC-RI substrate conversion, overnight [1]: Both XylA and T18 xylose isomerase showed increased activity on both sugars | HPLC-RI substrate conversion, overnight [2]: Both XylA and T18 xylose isomerase showed increased activity on both sugars

O=C(CO)[C@@H](O)[C@H](O)CO [xylulose]
HPLC-RI substrate conversion, overnight [1]: Both XylA and T18 xylose isomerase showed increased activity on both sugars | HPLC-RI substrate conversion, overnight [2]: Both XylA and T18 xylose isomerase showed increased activity on both sugars
